According to ChEMBL document CHEMBL1129986, “Reliability of comparative molecular field analysis models: effects of data scaling and variable selection using a set of human synovial fluid phospholipase A2 inhibitors” (J Med Chem, 1997):

Biological target: T1, Phospholipase A2, membrane associated (Homo sapiens) (UniProt P14555)
T1 sequence (whole entry): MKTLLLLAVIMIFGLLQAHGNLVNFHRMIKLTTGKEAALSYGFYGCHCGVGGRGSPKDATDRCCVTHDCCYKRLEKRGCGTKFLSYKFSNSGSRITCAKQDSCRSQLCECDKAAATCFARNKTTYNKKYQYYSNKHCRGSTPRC
Experiment: Inhibitory activity against human synovial fluid phospholipase A2 (HSF-PLA2).
Set-up: concentration or dose not given beside the values
Conditions: concentration not given here

SMILES	inhibition [%]
CCCCCCCCCCS(=O)(=O)N[C@H](CCCCCC)COP(=O)(O)OCCO (stereo in doubt; form 2)	45
CCCCCCCCCCS(=O)(=O)N[C@@H](CCCCCC)COP(=O)(O)OCCO	40
CCCCCCCCCCS(=O)(=O)N[C@H](CCCCCC)COP(=O)(O)OCCOCc1ccccc1	78
CCCCCCCCCCS(=O)(=O)NC(CCCCCC)COP(=O)(O)OCCO (stereo not given)	36
CCCCCCCCCCS(=O)(=O)NC(CCCCCC)COCC(F)(F)F (stereo not given)	0
CCCCCCCCCCS(=O)(=O)N[C@H](CCCCCC)COP(=O)(O)OCCO (stereo in doubt; form 1)	44
CCCCCCCCCCC(=O)NC(CCCCCC)COP(=O)(O)OCCNCc1ccccc1 (stereo not given)	28
CCCCCCCCCCCC(=O)NC(CCCCCC)COP(=O)(O)OCCO (stereo not given)	65
CCCCCCCCCCS(=O)(=O)CC(CCCCCC)COP(=O)(O)OCCO (stereo not given)	29
CCCCCCCCCCS(=O)(=O)NC(CCCCCC)COP(=O)(O)OCCCC (stereo not given)	0
